{"source": "the supplement of paper PMC10307832", "experiment_in_all_cases": "relative viability (nuclei count vs DMSO), 5 days (fraction); higher = more cells survive", "key": {"[1]": {"system": "HCC-44", "summary_of_the_method": "(§1)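 After 5 days of treatment, lung cancer cells in 1536-well plates were fixed and stained in a single step (final 0.05% Triton X-100, 1% formaldehyde, 1 ug/ml Hoechst) and their nuclei counted on 4× images. Treatment had been applied by pin tool the day after seeding as one drug alone or as a fixed anchor-drug dose with five library-drug doses (not always all listed) in √10 steps. Relative viability is the nuclei count of treated wells divided by that of vehicle wells, and values are medians of duplicate plates.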"}, "[2]": {"system": "LCLC-103H", "summary_of_the_method": "as §1"}, "[3]": {"system": "NCI-H727", "summary_of_the_method": "as §1"}, "[4]": {"system": "NCI-H1944", "summary_of_the_method": "as §1"}, "[5]": {"system": "SK-LU-1", "summary_of_the_method": "as §1"}, "[6]": {"system": "HCC-366", "summary_of_the_method": "as §1"}, "[7]": {"system": "HCC-827", "summary_of_the_method": "as §1"}, "[8]": {"system": "HCC-15", "summary_of_the_method": "as §1"}, "[9]": {"system": "HARA", "summary_of_the_method": "as §1"}, "[10]": {"system": "COR-L23", "summary_of_the_method": "as §1"}, "[11]": {"system": "NCI-H358", "summary_of_the_method": "as §1"}, "[12]": {"system": "UMC-11", "summary_of_the_method": "as §1"}, "[13]": {"system": "EPLC-272H", "summary_of_the_method": "as §1"}, "[14]": {"system": "NCI-H2405", "summary_of_the_method": "as §1"}, "[15]": {"system": "HCC-78", "summary_of_the_method": "as §1"}, "[16]": {"system": "NCI-H661", "summary_of_the_method": "as §1"}, "[17]": {"system": "NCI-H1975", "summary_of_the_method": "as §1"}, "[18]": {"system": "NCI-H1395", "summary_of_the_method": "as §1"}, "[19]": {"system": "NCI-H2023", "summary_of_the_method": "as §1"}, "[20]": {"system": "NCI-H2085", "summary_of_the_method": "as §1"}, "[21]": {"system": "NCI-H1437", "summary_of_the_method": "as §1"}, "[22]": {"system": "COR-L 105", "summary_of_the_method": "as §1"}}}
{"smiles": "O=C(O)CCCCC(CCSCc1ccccc1)SCc1ccccc1", "note": "(centres undefined) [CPI-613] + O=C(CCCCCCC(=O)Nc1ccccc1)NO [Vorinostat] (partner 1 µM)", "values": [{"measurement": "relative viability", "setting": "[1]; first compound 5 µM", "value": 1.01}, {"measurement": "relative viability", "setting": "[1]; first compound 15.81 µM", "value": 1.11}, {"measurement": "relative viability", "setting": "[1]; first compound 50 µM", "value": 1.08}, {"measurement": "relative viability", "setting": "[1]; first compound 158.11 µM", "value": 0.579}, {"measurement": "relative viability", "setting": "[1]; first compound 500 µM", "value": 0.265}, {"measurement": "relative viability", "setting": "[2]; first compound 5 µM", "value": 0.731}, {"measurement": "relative viability", "setting": "[2]; first compound 15.81 µM", "value": 0.662}, {"measurement": "relative viability", "setting": "[2]; first compound 50 µM", "value": 0.771}, {"measurement": "relative viability", "setting": "[2]; first compound 158.11 µM", "value": 0.683}, {"measurement": "relative viability", "setting": "[2]; first compound 500 µM", "value": 0.207}, {"measurement": "relative viability", "setting": "[3]; first compound 5 µM", "value": 1.1}, {"measurement": "relative viability", "setting": "[3]; first compound 15.81 µM", "value": 1.07}, {"measurement": "relative viability", "setting": "[3]; first compound 50 µM", "value": 1.04}, {"measurement": "relative viability", "setting": "[3]; first compound 158.11 µM", "value": 1.01}, {"measurement": "relative viability", "setting": "[3]; first compound 500 µM", "value": 0.642}, {"measurement": "relative viability", "setting": "[4]; first compound 5 µM", "value": 0.572}, {"measurement": "relative viability", "setting": "[4]; first compound 15.81 µM", "value": 0.574}, {"measurement": "relative viability", "setting": "[4]; first compound 50 µM", "value": 0.496}, {"measurement": "relative viability", "setting": "[4]; first compound 158.11 µM", "value": 0.322}, {"measurement": "relative viability", "setting": "[4]; first compound 500 µM", "value": 0.273}, {"measurement": "relative viability", "setting": "[5]; first compound 5 µM", "value": 0.773}, {"measurement": "relative viability", "setting": "[5]; first compound 15.81 µM", "value": 0.65}, {"measurement": "relative viability", "setting": "[5]; first compound 50 µM", "value": 0.648}, {"measurement": "relative viability", "setting": "[5]; first compound 158.11 µM", "value": 0.206}, {"measurement": "relative viability", "setting": "[5]; first compound 500 µM", "value": 0.11}, {"measurement": "relative viability", "setting": "[6]; first compound 5 µM", "value": 0.371}, {"measurement": "relative viability", "setting": "[6]; first compound 15.81 µM", "value": 0.314}, {"measurement": "relative viability", "setting": "[6]; first compound 50 µM", "value": 0.291}, {"measurement": "relative viability", "setting": "[6]; first compound 158.11 µM", "value": 0.0721}, {"measurement": "relative viability", "setting": "[6]; first compound 500 µM", "value": 0.0058}, {"measurement": "relative viability", "setting": "[7]; first compound 5 µM", "value": 0.769}, {"measurement": "relative viability", "setting": "[7]; first compound 15.81 µM", "value": 0.703}, {"measurement": "relative viability", "setting": "[7]; first compound 50 µM", "value": 0.773}, {"measurement": "relative viability", "setting": "[7]; first compound 158.11 µM", "value": 0.497}, {"measurement": "relative viability", "setting": "[7]; first compound 500 µM", "value": 0.656}, {"measurement": "relative viability", "setting": "[8]; first compound 5 µM", "value": 0.801}, {"measurement": "relative viability", "setting": "[8]; first compound 15.81 µM", "value": 0.774}, {"measurement": "relative viability", "setting": "[8]; first compound 50 µM", "value": 0.779}, {"measurement": "relative viability", "setting": "[8]; first compound 158.11 µM", "value": 0.181}, {"measurement": "relative viability", "setting": "[8]; first compound 500 µM", "value": 0.0657}, {"measurement": "relative viability", "setting": "[9]; first compound 5 µM", "value": 0.479}, {"measurement": "relative viability", "setting": "[9]; first compound 15.81 µM", "value": 0.529}, {"measurement": "relative viability", "setting": "[9]; first compound 50 µM", "value": 0.506}, {"measurement": "relative viability", "setting": "[9]; first compound 158.11 µM", "value": 0.0931}, {"measurement": "relative viability", "setting": "[9]; first compound 500 µM", "value": 0.024}, {"measurement": "relative viability", "setting": "[10]; first compound 5 µM", "value": 0.42}, {"measurement": "relative viability", "setting": "[10]; first compound 15.81 µM", "value": 0.387}, {"measurement": "relative viability", "setting": "[10]; first compound 50 µM", "value": 0.371}, {"measurement": "relative viability", "setting": "[10]; first compound 158.11 µM", "value": 0.125}, {"measurement": "relative viability", "setting": "[10]; first compound 500 µM", "value": 0.0123}, {"measurement": "relative viability", "setting": "[11]; first compound 5 µM", "value": 0.683}, {"measurement": "relative viability", "setting": "[11]; first compound 15.81 µM", "value": 0.561}, {"measurement": "relative viability", "setting": "[11]; first compound 50 µM", "value": 0.62}, {"measurement": "relative viability", "setting": "[11]; first compound 158.11 µM", "value": 0.0809}, {"measurement": "relative viability", "setting": "[11]; first compound 500 µM", "value": 0.0166}, {"measurement": "relative viability", "setting": "[12]; first compound 5 µM", "value": 0.355}, {"measurement": "relative viability", "setting": "[12]; first compound 15.81 µM", "value": 0.358}, {"measurement": "relative viability", "setting": "[12]; first compound 50 µM", "value": 0.39}, {"measurement": "relative viability", "setting": "[12]; first compound 158.11 µM", "value": 0.126}, {"measurement": "relative viability", "setting": "[12]; first compound 500 µM", "value": 0.1}, {"measurement": "relative viability", "setting": "[13]; first compound 5 µM", "value": 0.509}, {"measurement": "relative viability", "setting": "[13]; first compound 15.81 µM", "value": 0.406}, {"measurement": "relative viability", "setting": "[13]; first compound 50 µM", "value": 0.268}, {"measurement": "relative viability", "setting": "[13]; first compound 158.11 µM", "value": 0.0975}, {"measurement": "relative viability", "setting": "[13]; first compound 500 µM", "value": 0.0196}, {"measurement": "relative viability", "setting": "[14]; first compound 5 µM", "value": 1.09}, {"measurement": "relative viability", "setting": "[14]; first compound 15.81 µM", "value": 0.79}, {"measurement": "relative viability", "setting": "[14]; first compound 50 µM", "value": 0.787}, {"measurement": "relative viability", "setting": "[14]; first compound 158.11 µM", "value": 0.569}, {"measurement": "relative viability", "setting": "[14]; first compound 500 µM", "value": 0.468}, {"measurement": "relative viability", "setting": "[15]; first compound 15.81 µM", "value": 0.373}, {"measurement": "relative viability", "setting": "[15]; first compound 50 µM", "value": 0.361}, {"measurement": "relative viability", "setting": "[15]; first compound 158.11 µM", "value": 0.393}, {"measurement": "relative viability", "setting": "[15]; first compound 500 µM", "value": 0.479}, {"measurement": "relative viability", "setting": "[16]; first compound 5 µM", "value": 0.702}, {"measurement": "relative viability", "setting": "[16]; first compound 15.81 µM", "value": 0.702}, {"measurement": "relative viability", "setting": "[16]; first compound 50 µM", "value": 0.802}, {"measurement": "relative viability", "setting": "[16]; first compound 158.11 µM", "value": 0.423}, {"measurement": "relative viability", "setting": "[16]; first compound 500 µM", "value": 0.147}, {"measurement": "relative viability", "setting": "[17]; first compound 5 µM", "value": 0.73}, {"measurement": "relative viability", "setting": "[17]; first compound 15.81 µM", "value": 0.735}, {"measurement": "relative viability", "setting": "[17]; first compound 50 µM", "value": 0.692}, {"measurement": "relative viability", "setting": "[17]; first compound 158.11 µM", "value": 0.24}, {"measurement": "relative viability", "setting": "[17]; first compound 500 µM", "value": 0.0367}, {"measurement": "relative viability", "setting": "[18]; first compound 5 µM", "value": 0.792}, {"measurement": "relative viability", "setting": "[18]; first compound 15.81 µM", "value": 0.613}, {"measurement": "relative viability", "setting": "[18]; first compound 50 µM", "value": 0.871}, {"measurement": "relative viability", "setting": "[18]; first compound 158.11 µM", "value": 0.653}, {"measurement": "relative viability", "setting": "[18]; first compound 500 µM", "value": 0.745}, {"measurement": "relative viability", "setting": "[19]; first compound 5 µM", "value": 0.537}, {"measurement": "relative viability", "setting": "[19]; first compound 15.81 µM", "value": 0.475}, {"measurement": "relative viability", "setting": "[19]; first compound 50 µM", "value": 0.572}, {"measurement": "relative viability", "setting": "[19]; first compound 158.11 µM", "value": 0.0274}, {"measurement": "relative viability", "setting": "[19]; first compound 500 µM", "value": 0.007}, {"measurement": "relative viability", "setting": "[20]; first compound 5 µM", "value": 0.791}, {"measurement": "relative viability", "setting": "[20]; first compound 15.81 µM", "value": 0.709}, {"measurement": "relative viability", "setting": "[20]; first compound 50 µM", "value": 0.657}, {"measurement": "relative viability", "setting": "[20]; first compound 158.11 µM", "value": 0.457}, {"measurement": "relative viability", "setting": "[20]; first compound 500 µM", "value": 0.216}, {"measurement": "relative viability", "setting": "[21]; first compound 5 µM", "value": 0.803}, {"measurement": "relative viability", "setting": "[21]; first compound 15.81 µM", "value": 0.637}, {"measurement": "relative viability", "setting": "[21]; first compound 50 µM", "value": 0.689}, {"measurement": "relative viability", "setting": "[21]; first compound 158.11 µM", "value": 0.093}, {"measurement": "relative viability", "setting": "[21]; first compound 500 µM", "value": 0.0541}, {"measurement": "relative viability", "setting": "[22]; first compound 5 µM", "value": 0.765}, {"measurement": "relative viability", "setting": "[22]; first compound 15.81 µM", "value": 0.675}, {"measurement": "relative viability", "setting": "[22]; first compound 50 µM", "value": 1.04}, {"measurement": "relative viability", "setting": "[22]; first compound 158.11 µM", "value": 0.375}, {"measurement": "relative viability", "setting": "[22]; first compound 500 µM", "value": 0.261}]}
